We go through 6 compounds from patent publication US12186309B2, “RNA virus inhibitor compounds and uses thereof” (The Governors of the University of Alberta, priority 2021, dated 2025).

In data set [1] the test system is SARS-CoV-2. The data set is described as follows: SARS-CoV-2 plaque reduction assay in Vero E6 cells. The note with it: read-out: SARS-CoV-2 Antiviral EC50. The class given is cell-based.
In data set [2] the target is SARS-CoV-2 3CLP (Severe acute respiratory syndrome coronavirus 2 (2019-nCoV) (SARS-CoV-2), UniProt P0DTD1). The data set is described as follows: SARS-CoV-2 3CLP inhibition FRET assay. In kind it is biochemical. The note with it: 80 nM SARS-CoV-2 3CLP, 100 μM FRET substrate, pH 7.8, 37° C., 10 min preincubation; read-out: 3CL Protease IC50.
Data set [3] can be described thus: in vitro. In kind it is cell-based. On the procedure:
Cell viability was measured using the CellTiter-Glo luminescent cell viability assay (Promega). Separately A549 (human lung epithelial) cells and VeroE6 cells were seeded at 5×10^3 cells/well in 96-well plates and incubated overnight before treatment. Compounds were solubilized in DMSO and added to cells in an eight-point four-fold serial dilution (200 μM to 0.0122 μM). Cells were incubated in the presence of compounds for 24 hours before addition of the luminescence substrate and measurement of ATP activity according to manufacturer's instructions. The percentage of viable cells was calculated relative to cells treated with solvent alone (0.5% DMSO).

The mark [4] stands for this setting: Severe acute respiratory syndrome coronavirus 2, Vero C1008, Vero E6 cells, SARS-CoV-2/CANADA/VIDO 01/2020, MOI 0.0001 pfu/cell, plaques counted after 48 h.
Setting [5] is: Severe acute respiratory syndrome coronavirus 2, Vero C1008, 48 h.

Structures are written as SMILES. Like-named read-outs stand apart in the source and are kept apart here.

By EC50 is commonly meant the concentration at which the effect is half-maximal. As for `CC(C)C[C@@H](C(=O)N[C@H](C#N)C[C@@H]1CCCNC1=O)n1cccc(NC(=O)OC(C)(C)C)c1=O` [Compound 7, tert-butyl {1-[(2S)-1-({(1S)-1-cyano-2-[(3S)-2-oxopiperidin-3-yl]ethyl}amino)-4-methyl-1-oxopentan-2-yl]-2-oxo-1,2-dihydropyridin-3-yl}carbamate], the EC50 in data set [1] (setting [4]) is under 10 µM.
As a reminder, the IC50 is the concentration at which inhibition is half-maximal. `CC(C)C[C@@H](C(=O)N[C@H](C#N)C[C@@H]1CCCNC1=O)N1C(=O)c2ccccc2C1=O` [Compound 1, (2S)—N-{(1S)-1-cyano-2-[(3S)-2-oxopiperidin-3-yl]ethyl}-2-(1,3-dioxo-1,3-dihydro-2H-isoindol-2-yl)-4-methylpentanamide]: in data set [2], the IC50 came to 8.5 µM. The EC50 in data set [1] (setting [4]) is over 10 µM.
The term CC50 denotes the concentration that lowers cell viability or growth by half. For the compound `CC(C)(C)[C@H](NC(=O)C(F)F)C(=O)N1C[C@H]2[C@@H]([C@H]1C(=O)N[C@H](C#N)C[C@@H]1CCCNC1=O)C2(C)C` [Compound 20, (1R,2S,5S)—N-{(1S)-1-cyano-2-[(3S)-2-oxopiperidin-3-yl]ethyl}-3-[N-(difluoroacetyl)-3-methyl-L-valyl]-6,6-dimethyl-3-azabicyclo[3.1.0]hexane-2-carboxamide], the CC50 at 24 h in data set [3] (African green monkey) and in data set [3] (human) was over 200 µM throughout. Moreover, the EC50 in data set [1] (setting [5]) is under 5 µM.
For the compound `CC(C)C[C@@H](C(=O)N[C@H](C#N)C[C@@H]1CCCNC1=O)N1C(=O)CC(C)(C)C1=O` [Compound 2, (2S)—N-{(1S)-1-cyano-2-[(3S)-2-oxopiperidin-3-yl]ethyl}-2-(3,3-dimethyl-2,5-dioxopyrrolidin-1-yl)-4-methylpentanamide], in data set [2], the IC50 was found to be 10.7 µM. Moreover, the EC50 in data set [1] (setting [4]) was over 10 µM.
As to `[2H]C1([2H])CC[C@@H](C[C@@H](C#N)NC(=O)[C@@H]2[C@@H]3[C@H](CN2C(=O)[C@@H](NC(=O)C(F)F)C(C)(C)C)C3(C)C)C(=O)N1` [Compound 24, (1R,2S,5S)—N-{(1S)-1-cyano-2-[(3S)-2-oxo(6,6-^2H2)piperidin-3-yl]ethyl}-3-[N-(difluoroacetyl)-3-methyl-L-valyl]-6,6-dimethyl-3-azabicyclo[3.1.0]hexane-2-carboxamide], the CC50 at 24 h in data set [3] (African green monkey) and in data set [3] (human) was over 200 µM in each case. Also, the EC50 in data set [1] (setting [5]) is under 5 µM.
Regarding `CC(C)C[C@@H](C(=O)N[C@H](C#N)C[C@@H]1CCCNC1=O)N1C(=O)C[C@H](c2ccccc2)C1=O` [Compound 5, (2S)—N-{(1S)-1-cyano-2-[(3S)-2-oxopiperidin-3-yl]ethyl}-2-[(3R)-2,5-dioxo-3-phenylpyrrolidin-1-yl]-4-methylpentanamide], the IC50 in data set [2] is 6.9 µM. The half-maximal effective concentration (EC50) in data set [1] (setting [4]) is over 10 µM.
